In patent US7897401B2, “Control of apoptosis by controlling the propensity of ceramide channel formation” (University of Maryland, College Park, priority 2005, dated 2011):

What was measured:
[1] = system: ceramide channels in the mitochondrial outer membrane (MOM); assay: Adenylate kinase release assay in isolated rat liver mitochondria; assay type: biochemical
Experimental: The preparation yielded a mitochondrial suspension containing 10 mg of protein per mL. […] The mitochondria were then pelleted at 14,000 g for 5 min at 4° C. and the supernatant was kept on ice until assayed. […] The enzymes were added to the rest of the reaction mixture 1 min before the addition of the mitochondrial supernatant to allow a trace of ATP to be consumed. The activity of adenylate kinase was detected as an increase in absorbance at 340 nm. Since the activity of the kinase decays with time, even on ice, experiments were performed in sets and the activity of the first supernatant was assayed again at the end of the set. The values were fitted to a first order decay and all values within the set were corrected for the decay of the activity, based on the time delay before assay.
To determine the effect of sphingosine pretreatment on ceramide permeabilization of the mitochondrial outer membrane, mitochondria were incubated at room temperature in the presence of varying concentrations of sphingosine for […] before addition of ceramide and incubation for 10 min. Untreated mitochondria and mitochondria hypotonically lysed (20 μl into 1.2 ml water) served as negative and positive controls, respectively.
Experiments with C16-ceramide were performed in a similar way except as follows. The mitochondria were suspended in the above medium except that the 1 mM Tris buffer was replaced by 5 mM HEPES. To 1.0 mL of this medium at room temperature (RT) was added 17 μL of mitochondrial suspension that had been kept on ice at a concentration of 4 mg/mL. The final mitochondrial protein concentration during the experiment was 80 μg/mL. In the case of shocked mitochondria, the 1.0 mL of medium was replaced by water. Sphingosine was added, where appropriate, from a 0.25 mg/mL solution in DMSO. Typically 4-7 incubations were run in parallel. All samples were incubated for 5 min at RT. Then some samples received 0.4 mL of fatty acid depleted bovine serum albumin (BSA), 25 mg/mL, followed immediately by 20 μL of C16-ceramide dissolved in isopropanol at 2 mg/mL. After a 10-min incubation at RT, 10 μL of 4 mM PMSF was added followed by centrifugation. In these experiments 0.3 mL of mitochondrial supernatant was added to the adenylate kinase reaction mixture.

ceramide channels = assay: Screening for influence on ceramide channel formation in liposomes or planar membranes; assay type: biochemical
Text: In one embodiment, such methods comprise screening compounds for their ability to influence the formation of ceramide channels in liposomes or planar membranes. […] Such liposomes or planar membranes can be produced using any of a variety of lipids. Preferably, however, the constituents of the liposomes or planar membranes will be selected to mimic those of the MOM, or to have relevance to such membranes (see, Weissig, V. et al. (2006) “LIPOSOMES AND LIPOSOME-LIKE VESICLES FOR DRUG AND DNA DELIVERY TO MITOCHONDRIA,” J. Liposome Res. 16(3):249-264; Torchilin, V. P. (2006) “RECENT APPROACHES TO INTRACELLULAR DELIVERY OF DRUGS AND DNA AND ORGANELLE TARGETING,” Annu. Rev. Biomed. Eng. 8:343-375; Elrick, M. J. et al. (2006) “SPHINGOSINE, A PRODUCT OF CERAMIDE HYDROLYSIS, INFLUENCES THE FORMATION OF CERAMIDE CHANNELS,” Biophys. J. 1; 91(5):1749-1756; Bathori, G. et al. (2006) “CA2+-DEPENDENT CONTROL OF THE PERMEABILITY PROPERTIES OF THE MITOCHONDRIAL OUTER MEMBRANE AND VOLTAGE-DEPENDENT ANION-SELECTIVE CHANNEL (VDAC),” J. Biol. Chem. 281(25):17347-17358; Stiban, J. et al. (2006) “DIHYDROCERAMIDE HINDERS CERAMIDE CHANNEL FORMATION: IMPLICATIONS ON APOPIOSIS,” Apoptosis 11(5):773-780; Stover, T. C. et al. (2005) “SYSTEMIC DELIVERY OF LIPOSOMAL SHORT-CHAIN CERAMIDE LIMITS SOLID TUMOR GROWTH IN MURINE MODELS OF BREAST ADENOCARCINOMA,” Clin. Cancer Res. 11(9):3465-3474).

[2] = Ability of sphingolipids to form channels in membranes; assay type: biochemical
Text: The present invention establishes that sphingosine is capable of directly disassembling ceramide channels, thus proving the existence of this novel anti-apoptotic regulatory step. The ability of sphingosine, sphingosine-1-phosphate ([…]) and ceramide-1-phosphate the ability to form channels was investigated.

[3] = published value; cited from earlier work
[4] = observed in isolated mitochondria and liposome permeability assay

## CCCCCCCCCCCCC/C=C/[C@@H](O)[C@@H](N)CO [sphingosine]
[1]; 2.4 μg/mL for 5 min, then fatty acid depleted BSA, no ceramide added
  permeabilization of the MOM to adenylate kinase after removal of excess compound with BSA: release of adenylate kinase is evident
[1]; 5 min preincubation, C16-ceramide 40 μg/mL, 10 min, low concentration potentiates, higher inhibits
  effect of preincubation on C16-ceramide permeabilization of the MOM and adenylate kinase release: biphasic relationship
[1]; 5 min pretreatment, then C2-ceramide 29 μg/mL for 10 min at room temperature, depends on batch of mitochondria
  sphingosine exposure giving essentially total inhibition of ceramide-dependent adenylate kinase release: 0.3 to 0.6 µg/mL
[1]; no ceramide, concentration range up to 6 μg/mL
  release of adenylate kinase by compound alone: did not induce the release of adenylate kinase
[1]; [4]
  higher levels that strongly inhibited ceramide channel formation: 5 to 10 µM
  low levels that stimulated ceramide induced permeabilization of the mitochondrial outer membrane to proteins: 1 to 2 µM
Ceramide channels
  concentration at which very potent inhibitor of ceramide channels: 5 µM
[2]
  ability to form channels: produced real channels
[3]
  CMC: more than 30 μg/mL
